Measured values taken from ChEMBL document CHEMBL3044587, “Synthesis of B-ring substituted flavones and evaluation of their antitumor and antioxidant activities” (Med Chem Res, 2013).
In brackets after ≈: the same amount, converted by molar mass. Counter-ions that a name gives are not always drawn.

How the values were obtained:
Format in all cases: functional
MOLT-4 [1] = experiment: Cytotoxicity against Homo sapiens (human) MOLT4 cells after 48 hr by SRB assay; conditions: MOLT-4, 48 h
HepG2 [2] = experiment: Cytotoxicity against Homo sapiens (human) HepG2 cells after 48 hr by SRB assay; conditions: HepG2, 48 h
Liver microsome = experiment: Antioxidant activity in Wistar albino Rattus norvegicus (rat) liver microsomes assessed as inhibition of lipid peroxidation after 1 hr by TBARS method
MCF7 [3] = experiment: Cytotoxicity against Homo sapiens (human) MCF7 cells after 48 hr by SRB assay; conditions: MCF7, 48 h
HepG2 [4] = experiment: Growth inhibition of Homo sapiens (human) HepG2 cells at 100 uM after 48 hr by SRB assay; conditions: HepG2, 48 h, read-out: GI
MOLT-4 [5] = experiment: Growth inhibition of Homo sapiens (human) MOLT4 cells at 100 uM after 48 hr by SRB assay; conditions: MOLT-4, 48 h, read-out: GI
MCF7 [6] = experiment: Growth inhibition of Homo sapiens (human) MCF7 cells at 100 uM after 48 hr by SRB assay; conditions: MCF7, 48 h, read-out: GI

COc1cc(OC)cc(-c2cc(=O)c3ccccc3o2)c1 [3',5'-DIMETHOXYFLAVONE]
GI50 (MOLT-4 [1]): < 0.1 µM | GI50 (HepG2 [2]): 58.8 µM | IC50 (Liver microsome): 40 µg/mL (≈ 142 µM) | GI50 (MCF7 [3]): < 0.1 µM

O=c1cc(-c2cccc([N+](=O)[O-])c2)oc2ccccc12
GI50 (MOLT-4 [1]): 36 µM | GI50 (HepG2 [2]): 94.9 µM | IC50 (Liver microsome): 60 µg/mL (≈ 225 µM) | GI50 (MCF7 [3]): 31 µM

O=c1c(O)c(-c2ccc(O)c(O)c2)oc2cc(O)cc(O)c12 [QUERCETIN]
IC50 (Liver microsome): 20 µg/mL (≈ 66.2 µM)

COc1ccc(-c2cc(=O)c3ccccc3o2)cc1 [4'-METHOXYFLAVONE]
inhibition of growth at 100 µM (HepG2 [4]): < 50% | GI50 (MOLT-4 [1]): 99.2 µM | IC50 (Liver microsome): 60 µg/mL (≈ 238 µM) | GI50 (MCF7 [3]): 61.8 µM

COc1ccc(-c2cc(=O)c3ccccc3o2)cc1OC [3',4'-DIMETHOXYFLAVONE]
inhibition of growth at 100 µM (MOLT-4 [5]): < 50% | inhibition of growth at 100 µM (HepG2 [4]): < 50% | IC50 (Liver microsome): 40 µg/mL (≈ 142 µM) | inhibition of growth at 100 µM (MCF7 [6]): < 50%

O=c1cc(-c2ccccc2)oc2ccccc12 [FLAVONE]
inhibition of growth at 100 µM (MOLT-4 [5]): < 50% | GI50 (HepG2 [2]): 50.6 µM | IC50 (Liver microsome): 100 µg/mL (≈ 450 µM) | GI50 (MCF7 [3]): 69.3 µM

COc1cccc2c1C(=O)c1c(O)c3c(c(O)c1C2=O)C[C@@](O)(C(=O)CO)C[C@@H]3O[C@H]1C[C@H](N)[C@H](O)[C@H](C)O1 [DOXORUBICIN HYDROCHLORIDE]
GI50 (MOLT-4 [1]): < 0.1 µM | GI50 (HepG2 [2]): < 0.1 µM | GI50 (MCF7 [3]): < 0.1 µM

O=c1cc(-c2ccccc2)oc2cc(O)cc(O)c12 [CHRYSIN]
inhibition of growth at 100 µM (HepG2 [4]): < 50% | GI50 (MOLT-4 [1]): 58.6 µM | IC50 (Liver microsome): 60 µg/mL (≈ 236 µM) | GI50 (MCF7 [3]): 69 µM

O=c1cc(-c2ccc(Cl)c([N+](=O)[O-])c2)oc2ccccc12
GI50 (MOLT-4 [1]): 50.7 µM | GI50 (HepG2 [2]): 93.8 µM | IC50 (Liver microsome): 80 µg/mL (≈ 265 µM) | GI50 (MCF7 [3]): 40.9 µM

O=c1cc(-c2ccc(Cl)cc2)oc2ccccc12
inhibition of growth at 100 µM (MOLT-4 [5]): < 50% | inhibition of growth at 100 µM (HepG2 [4]): < 50% | IC50 (Liver microsome): 60 µg/mL (≈ 234 µM) | inhibition of growth at 100 µM (MCF7 [6]): < 50%
